Among the data in patent US7973219B2, “Method for producing transgenic plants resistant to weed control compounds which disrupt the porphyrin pathways of plants” (Sumitomo Chemical Company, Limited, priority 1998, dated 2011) are Relative absorbance and resistant level values, retold here.

Structures are written as SMILES.

Test [1] relates to E. coli BT3/pACYCSP+pTVCRP strain. The test is described as follows: Growth of E. coli BT3/pACYCSP+pTVCRP (variant Chlamydomonas reinhardtii PPO) with herbicidal compound. The test is classed as cell-based, Escherichia coli. The settings on record: 18 hours culture, Table 9. An excerpt:
According to the description of Gibson, L. C. D. et al., Proc. Natl. Acad. Sci. USA, 92; p 1941 (1995), the DNA fragment containing bchH gene prepared in Example 1 was digested with the restriction enzymes NdeI and BglII. The resultant DNA fragment was inserted between NdeI restriction site and BamHI restriction site of expression vector pET11a (manufactured by Stratagene) to obtain plasmid pETBCH (FIG. 1). This plasmid pETBCH was introduced into E. coli BL21(DE3) strain competent cells (manufactured by Stratagene) according to the manual attached to the competent cells to obtain E. coli BL21(DE3)/pETBCH strain. The strain was inoculated into 1.5 ml LB liquid culture medium (1% tryptone, 0.5% yeast extract, 0.5% NaCl) containing 100 μg/ml ampicillin in a tube (14×10 mm), and the tube was covered with aluminum foil (hereinafter referred to as dark conditions), cultured with shaking at 37° C. under light of fluorescent lamp (about 8000 lux). When the absorbance at 600 nm of the liquid culture medium became about 0.6, isopropyl β-D-thiogalactopyranoside (IPTG) was added to the liquid culture medium so that the final concentration was 0.4 mM, and the culture was continued for about additional 20 hours. […] In contrast to this, when E. coli BL21(DE3)/pETBCH strain was cultured according to the same manner (with IPTG) except that the tube was not covered with aluminum foil (hereinafter referred to as light conditions), E. coli grew and turned red as above.
Plasmids pTVCRP and pTV118N prepared in Example 16 were introduced into E. coli BT3/pACYCSP strain prepared in Example 3 respectively according to the method described in Hanahan, D. J., Mol. Biol., 166; p 557 (1983). E. coli BT3/pACYCSP+pTVCRP strain bearing plasmids pACYCSP and pTVCRP, and E. coli BT3/pACYCSP+pTV118N strain bearing plasmids pACYCSP and pTV118N were obtained by culturing the above strains in YPT medium containing 100 μg/ml ampicillin, 15 μg/ml chloramphenicol and 10 μg/ml kanamycin.
These E. coli strains were inoculated into YPT medium containing 10 or 1 ppm of the PPO inhibitory-type herbicidal compound represented by Structure 8, 100 μg/ml ampicillin. 15 μg/ml chloramphenicol, 10 μg/ml kanamycin, 10 μg/ml hemin and 50 μg/ml aminolevulinic acid, cultured under dark conditions or light conditions in the same manner as in Example 2. Then, 18 hours after initiation of culture, the absorbance of liquid culture medium was measured at 600 nm. By taking the absorbance of the medium containing no herbicidal compound as 1, the relative value of the absorbance of the medium containing the herbicidal compound was calculated.

Test [2] deals with tobacco bearing introduced both Arabidopsis thaliana PPO(A220V) gene and gene encoding the variant tobacco chelatase subunit. The test is described as follows: Leaf piece chlorophyll test, tobacco with PPO(A220V) gene and variant tobacco chelatase subunit gene. Format: in vivo. The following applies: 2.0 ppm, 7 days in a light place, Example 37. An excerpt: Tobacco leaf pieces cultured sterilely were infected with the Agrobacterium strain and, according to the same manner as in Example 5, tobacco bearing the introduced both Arabidopsis thaliana PPO(A220V) gene and gene encoding the variant tobacco chelatase subunit was obtained.
Leaves of the tobacco bearing the introduced both Arabidopsis thaliana PPO(A220V) gene and gene encoding the variant tobacco chelatase subunit produced in Example 36, those bearing the introduced Arabidopsis thaliana PPO(A220V) gene produced in Example 35, and the control recombinant tobacco leaves produced in Example 5were collected, and each leaf was divided into the right and left equivalent pieces along the main vein. One of the pieces was treated with an aqueous solution containing 2.0 ppm PPO inhibitory-type herbicidal compound of Structure 8, while the other piece was not treated with the compound. These leaf pieces were placed on MS medium containing 0.8% agar and allowed to stand at room temperature for 7 days in a light place. Then, each leaf piece was ground in 5 ml of 80% aqueous acetone solution in a mortar with a pestle to extract chlorophyll. The extract was diluted 10 times with 80% aqueous acetone solution and the absorbance was measured at 750 nm, 663 nm and 645 nm to calculate the total chlorophyll content according to the method described by Macknney G., J. Biol. Chem. (1941) 140, p 315. […]

Regarding `C#CCOc1cc(N2C(=O)C3=C(CCCC3)C2=O)c(F)cc1Cl` [Structure 8], the Relative absorbance in test [1] (in the dark, 1 ppm) came to 0.82; in test [1] (in the dark, 10 ppm) it was 0.81; in test [1] (in the light, 1 ppm) it was 0.42; in test [1] (in the light, 10 ppm), 0.23. The resistant level in test [2] was determined as 61.6%.
